Assay results from US11873298B2, “Compounds and uses thereof” (JANSSEN PHARMACEUTICA NV, priority 2017, dated 2024).
Where “and” joins values, the source holds several entries; their conditions need not be identical. Identical values can stand only once.

Experiments:
Format in all cases: cell-based
SCD5 = molecular target: T1, SCD5 (Homo sapiens, UniProt Q86SK9); assay: Growth inhibition of humanized yeast strain expressing SCD5 as sole desaturase; details: humanized yeast strain expressing SCD5
T1 construct: host or cells: S. cerevisiae ole1Δ strain (W303 pdr1Δ pdr3Δ background), plasmid pRS316 with TDH3 promoter and CYC1 terminator
T1 sequence (Q86SK9 1-330): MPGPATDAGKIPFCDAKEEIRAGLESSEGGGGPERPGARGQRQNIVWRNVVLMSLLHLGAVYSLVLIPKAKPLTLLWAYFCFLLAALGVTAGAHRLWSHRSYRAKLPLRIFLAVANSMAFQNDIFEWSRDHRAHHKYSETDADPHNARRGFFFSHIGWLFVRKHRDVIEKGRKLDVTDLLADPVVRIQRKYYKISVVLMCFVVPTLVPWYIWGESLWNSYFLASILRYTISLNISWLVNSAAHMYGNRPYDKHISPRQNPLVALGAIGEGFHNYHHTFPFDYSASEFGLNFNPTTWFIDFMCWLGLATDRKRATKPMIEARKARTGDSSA
Summary of the method: (§1)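 OD600 growth read-out. ole1Δ yeast, pdr1Δ pdr3Δ, with Ole1/SCD1/SCD5 on a plasmid; SX-Ura media throughout; 2× cell density 0.02 in CSM-Galactose; DMSO compound dilutions; humidified 30° C.; Ole1 stopped at 24 h, SCD1/SCD5 at 40 h.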

SCD1 = molecular target: T2, SCD1 (Homo sapiens, UniProt O00767); assay: Growth inhibition of humanized yeast strain expressing SCD1 as sole desaturase; details: humanized yeast strain expressing SCD1
T2 construct: host or cells: S. cerevisiae ole1Δ strain (W303 pdr1Δ pdr3Δ background), plasmid pRS316 with TDH3 promoter and CYC1 terminator
T2 sequence (O00767 1-359): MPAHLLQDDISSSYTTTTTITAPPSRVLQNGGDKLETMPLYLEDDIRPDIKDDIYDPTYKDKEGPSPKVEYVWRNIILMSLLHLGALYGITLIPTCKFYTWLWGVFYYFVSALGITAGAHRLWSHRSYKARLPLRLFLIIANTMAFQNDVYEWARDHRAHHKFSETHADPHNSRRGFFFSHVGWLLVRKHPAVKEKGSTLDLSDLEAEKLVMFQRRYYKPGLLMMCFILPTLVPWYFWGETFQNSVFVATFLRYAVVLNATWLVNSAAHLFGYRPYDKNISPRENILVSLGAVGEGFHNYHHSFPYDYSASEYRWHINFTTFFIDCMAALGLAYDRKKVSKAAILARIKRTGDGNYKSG
Summary of the method: as §1

Ole1 = molecular target: T3, Ole1 (Saccharomyces cerevisiae, UniProt P21147); assay: Growth inhibition of yeast strain expressing Ole1 as sole desaturase; details: yeast strain expressing Ole1 as sole desaturase
T3 construct: expressed in transfected cells; host or cells: S. cerevisiae ole1Δ strain (W303 pdr1Δ pdr3Δ background), plasmid pRS316 with TDH3 promoter and CYC1 terminator
T3 sequence (P21147 1-510): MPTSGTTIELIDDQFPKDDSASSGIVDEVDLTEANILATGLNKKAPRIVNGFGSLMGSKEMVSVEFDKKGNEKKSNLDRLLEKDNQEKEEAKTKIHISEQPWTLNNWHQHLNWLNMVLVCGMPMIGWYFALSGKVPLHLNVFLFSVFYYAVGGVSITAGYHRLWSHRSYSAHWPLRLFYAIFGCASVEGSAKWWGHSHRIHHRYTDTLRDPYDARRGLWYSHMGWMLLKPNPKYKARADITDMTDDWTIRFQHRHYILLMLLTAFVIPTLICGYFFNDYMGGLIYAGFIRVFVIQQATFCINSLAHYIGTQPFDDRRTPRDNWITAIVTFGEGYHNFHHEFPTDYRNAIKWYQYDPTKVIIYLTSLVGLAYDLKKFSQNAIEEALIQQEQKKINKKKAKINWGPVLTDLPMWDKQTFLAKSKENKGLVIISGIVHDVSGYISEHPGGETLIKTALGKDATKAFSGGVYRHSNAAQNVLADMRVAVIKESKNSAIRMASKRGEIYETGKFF
Method: Strain oleΔ (yeast ole1 deletion mutant) was constructed by deleting OLE1 with NAT-MX6 in BY4741, amplifying the deletion cassette from the genomic DNA of the resulting strain with primers flanking the ORF by 1000 bp upstream and downstream, transforming the resulting deletion cassette into W303 pdr1Δ pdr3Δ, and plating transformants on YPD media containing G418 (200 μg/mL) and nourseothricin ([…]) with 0.01% TWEEN®-20 and 0.5 mM oleic and palmitoleic acids.
The coding sequence of yeast OLE1 was also cloned into this plasmid). These clones were then transformed into the ole1Δ strain and plated on CSM-Ura media (CSM lacking uracil) with 2% glucose (w/v) and independent colonies were isolated and amplified.
All compound profiling experiments were performed using the same basic protocol. Different genetic backgrounds (e.g., gene deletions) or conditions (e.g., addition of oleic and palmitoleic acid) were replaced as indicated below.
Yeast were cultured using standard techniques in complete synthetic media (CSM) and yeast nitrogen base supplemented with 2% (w/v) carbon source (glucose, raffinose, or galactose) to regulate the expression of the toxic disease protein. An initial starter culture was inoculated in 3 mL CSM-Glucose media and incubated overnight in a 30° C. shaker incubator (225 rpm). Saturated morning cultures were then diluted 1:20 in fresh CSM-Raffinose media and grown for 6 h to an OD600 (optical density) of ˜0.4-0.8 at 30° C. with shaking.
Compound administration was performed in two separate steps. First, 15 μL of CSM-Galactose (induces expression of toxic protein) was dispensed into clear 384 well assay plates using a MULTIDROP™ Combi reagent dispenser. […] The cultures described above were then diluted to a 2× concentration (0.03 and 0.08 for alpha-synuclein and ApoE, final ODsoo of 0.015 and 0.04) in CSM-Galactose. For wild-type and Ole1/SCD1/SCD5 plasmid-containing strains, the 2× cell density was 0.02. […] For 96-well assays (FIGS. 1A and 1B), compound dilutions in DMSO were generated in 96 well plates and 1 μL was manually pipetted into 96 well clear bottom assay plates.
For experiments using a plasmid-borne copy of Ole1, SCD1, or SCD5 (FIGS. 3B, 6, and 7), media lacking uracil (SX-Ura, where X is glucose, raffinose, or galactose), was used for all steps of the compound profiling protocol to ensure its maintenance throughout the assay.
After yeast delivery, assay plates were incubated under humidified conditions at 30° C. for 24 to 40 h. ApoE4 rescue experiments were stopped at 24 h, aSyn experiments at 40 h, Ole1 at 24 h, and SCD1/SCD5 at 40 h. The growth of yeast was monitored by reading the ODsoo of each well using a microplate reader (Perkin Elmer EnVision™).

Q: For `CCN1C(=O)COc2ccc(-c3nc(C4(c5ccc(OC)cc5)CC4)no3)cc21` [Compound 158], which IC50 (SCD5) is on record?
A: The IC50 was > 45 µM.

Q: What about the “SCD5 % Max Inhibition” value (SCD5) of the same compound?
A: Its value is 91.96%.

Q: What about the IC50 (SCD1) of the same compound?
A: Its IC50 is > 45 µM.

Q: What about the “SCD1 % Max Inhibition” value (SCD1) of the same compound?
A: The value was 78.34%.

Q: What about the IC50 (Ole1) of the same compound?
A: Its IC50 is > 45 µM.

Q: What about the “OLE1 % Max Inhibition” value (Ole1) of the same compound?
A: The value was 89.93%.

Q: `CCN1C(=O)COc2ccc(-c3nc(C4(c5ccccc5)CC4)no3)cc21` [Compound 159] was tested. Which IC50 (SCD5) did it give?
A: Its IC50 is 13.9 µM.

Q: And the “SCD5 % Max Inhibition” value (SCD5)?
A: The value was 10.25%.

Q: What about the IC50 (SCD1) of the same compound?
A: The IC50 was 38.9 µM.

Q: What about the “SCD1 % Max Inhibition” value (SCD1) of the same compound?
A: The value was 70.17%.

Q: What about the IC50 (Ole1) of the same compound?
A: The IC50 was > 45 µM.

Q: And the “OLE1 % Max Inhibition” value (Ole1)?
A: Its value is 46.92%.

Q: Which IC50 (SCD5) does the source give for `CCN1C(=O)COc2ccc(-c3nc(C(C)c4ccccc4)no3)cc21` (centres unmarked) [Compound 160] here?
A: Its IC50 is 24.3 µM.

Q: And the “SCD5 % Max Inhibition” value (SCD5)?
A: The value was 28.51%.

Q: What about the IC50 (SCD1) of the same compound?
A: Its IC50 is 40.7 µM.

Q: And the “SCD1 % Max Inhibition” value (SCD1)?
A: Its value is 63.44%.

Q: And the IC50 (Ole1)?
A: Its IC50 is 36.2 µM.

Q: And the “OLE1 % Max Inhibition” value (Ole1)?
A: Its value is 71.55%.

Q: What does the source list for `Cn1c(=O)[nH]c2ccc(-c3noc(C4CCN(C(=O)CNC(=O)c5ccccc5)CC4)n3)cc21` [Compound 162]?
A: IC50 (SCD5): > 45 µM; SCD5 % Max Inhibition (SCD5): 76.89%; IC50 (SCD1): > 45 µM; SCD1 % Max Inhibition (SCD1): 84.54%; IC50 (Ole1): > 45 µM; OLE1 % Max Inhibition (Ole1): 100.35%

Q: Which IC50 (SCD5) does the source give for `O=C(NCC(=O)N1CCC(c2nc(-c3ccc4nonc4c3)no2)CC1)c1ccccc1` [Compound 163] here?
A: The IC50 was > 45 µM.

Q: And the “SCD5 % Max Inhibition” value (SCD5)?
A: Its value is 24.77%.

Q: And the IC50 (SCD1)?
A: The IC50 was 36.5 µM.

Q: What about the “SCD1 % Max Inhibition” value (SCD1) of the same compound?
A: Its value is 55.99%.

Q: What about the IC50 (Ole1) of the same compound?
A: Its IC50 is > 45 µM.

Q: And the “OLE1 % Max Inhibition” value (Ole1)?
A: Its value is 71.84%.

Q: With `O=C(C1CC(=O)N(c2ccccc2)C1)N1CCC(c2nc(-c3ccc4nonc4c3)no2)CC1` (centres unmarked) [Compound 164] as the compound, how does the IC50 (SCD5) read?
A: Its IC50 is > 45 µM.

Q: What about the “SCD5 % Max Inhibition” value (SCD5) of the same compound?
A: The value was 73.90%.

Q: And the IC50 (SCD1)?
A: Its IC50 is > 45 µM.

Q: What about the “SCD1 % Max Inhibition” value (SCD1) of the same compound?
A: The value was 102.20%.

Q: And the IC50 (Ole1)?
A: Its IC50 is > 45 µM.

Q: What about the “OLE1 % Max Inhibition” value (Ole1) of the same compound?
A: The value was 96.96%.

Q: Which IC50 (SCD5) does the source give for `Cc1nn(C)c2cc(-c3noc(C4CCN(C(=O)CN5Cc6ccccc6C5=O)CC4)n3)ccc12` [Compound 165] here?
A: Its IC50 is > 45 µM.

Q: And the “SCD5 % Max Inhibition” value (SCD5)?
A: The value was 80.23%.

Q: And the IC50 (SCD1)?
A: Its IC50 is > 45 µM.

Q: And the “SCD1 % Max Inhibition” value (SCD1)?
A: The value was 94.44%.

Q: And the IC50 (Ole1)?
A: The IC50 was > 45 µM.

Q: What about the “OLE1 % Max Inhibition” value (Ole1) of the same compound?
A: The value was 2.01%.

Q: Which IC50 (SCD5) does the source give for `CCOc1cnc(-c2noc(C3CCN(C(=O)CNC(=O)c4ccccc4)CC3)n2)nc1OC` [Compound 166] here?
A: Its IC50 is > 45 µM.

Q: And the “SCD5 % Max Inhibition” value (SCD5)?
A: The value was 68.87%.

Q: And the IC50 (SCD1)?
A: The IC50 was > 45 µM.

Q: And the “SCD1 % Max Inhibition” value (SCD1)?
A: The value was 90.07%.

Q: What about the IC50 (Ole1) of the same compound?
A: The IC50 was > 45 µM.

Q: What about the “OLE1 % Max Inhibition” value (Ole1) of the same compound?
A: Its value is 105.73%.

Q: With `COc1ccc(-c2noc(C3CCN(C(=O)c4cccc(C(C)C)c4)CC3)n2)cc1OC` [Compound 167] as the compound, how does the IC50 (SCD5) read?
A: The IC50 was > 45 µM.

Q: And the “SCD5 % Max Inhibition” value (SCD5)?
A: The value was 2.38%.

Q: And the IC50 (SCD1)?
A: The IC50 was > 45 µM.

Q: What about the “SCD1 % Max Inhibition” value (SCD1) of the same compound?
A: The value was 6.11%.

Q: And the IC50 (Ole1)?
A: The IC50 was 38.4 µM.

Q: And the “OLE1 % Max Inhibition” value (Ole1)?
A: The value was 57.28%.

Q: For `Cc1nn(C)c2cc(-c3noc(C4CCN(C(=O)C5CC(=O)N(c6cccc(C#N)c6)C5)CC4)n3)ccc12` (centres unmarked) [Compound 168], which IC50 (SCD5) is on record?
A: The IC50 was > 45 µM.

Q: And the IC50 (SCD1)?
A: Its IC50 is > 45 µM.

Q: What about the “SCD1 % Max Inhibition” value (SCD1) of the same compound?
A: The value was 114.58% and 74.07%.

Q: What about the IC50 (Ole1) of the same compound?
A: The IC50 was > 45 µM.

Q: And the “OLE1 % Max Inhibition” value (Ole1)?
A: Its value is 4.90% and 8.34%.
